# Where two headings read alike, the source gives them in different places.
# Test: Mouse blood and tissue PK (LC/MS-MS)
# Assay type: in vivo
# Settings: for AUC(0-t): read-out: Blood AUClast
# Experimental: For single-dose PKPD study, mice were randomized and assigned into groups (n = 3/dose/time point). […] Blood and tissues, including the tumor, brain, colon, ear skin, and muscle, were harvested at indicated time points. […] The whole blood, tumor, brain, colon, and ear skin concentrations of RMC-6236 were determined using liquid chromatography–tandem mass spectrometry (LC/MS-MS) methods. […] After thorough mixing and centrifugation, the supernatant was diluted with water or directly analyzed on a Sciex 5500 or Sciex 6500+ triple quadrupole mass spectrometer equipped with an ACQUITY or Shimadzu UPLC system. […] Bioanalysis on blood and tissue samples from xenograft models was run at Pharmaron and Wuxi AppTec. Concentrations reported as below the quantification limit were treated as zero for PK analysis. PK parameters were calculated by noncompartmental analysis of the concentration–time profiles using Phoenix WinNonLin (version 8.3 Certara). Apparent terminal elimination half-life (t1/2) values were calculated as ln(2)/k, where k represents the terminal elimination rate constant. Area under the concentration–time curve (AUC) values were estimated using a linear trapezoidal method. AUClast values were calculated from the dosing time to the last quantifiable concentration. Maximum concentration (Cmax) was recorded as observed.
# [1] = mouse, whole blood, oral, 10 mg/kg, Model Validation Dataset, 10mg/kg_study6, read-out: Blood Concentration
# [2] = mouse, whole blood, oral, 25 mg/kg, Model Development Dataset, 25mg/kg_study8, read-out: Blood Concentration
# [3] = mouse, whole blood, oral, 25 mg/kg, Model Development Dataset, 25mg/kg_study8r (doses every 24 h, 0-[…])
# [4] = mouse, whole blood, oral, 25 mg/kg, Model Validation Dataset, 25mg/kg_study6, read-out: Blood Concentration
# [5] = mouse, whole blood, oral, 40 mg/kg, Model Development Dataset, 40mg/kg_study8, read-out: Blood Concentration
# [6] = mouse, whole blood, oral, 40 mg/kg, Model Development Dataset, 40mg/kg_study8r (doses every 24 h, 0-[…])
# [7] = mouse, whole blood, oral, 50 mg/kg, Model Validation Dataset, 50mg/kg_study6, read-out: Blood Concentration
# [8] = mouse, whole blood, po, 1 mg/kg, NCI-H441 #1 (1 mg/kg), QD x 28 days
# [9] = mouse, whole blood, po, 3 mg/kg, NCI-H441 (3 mg/kg), single dose
# [10] = mouse, whole blood, po, 5 mg/kg, NCI-H441 #1 (5 mg/kg), QD x 28 days
# [11] = mouse, whole blood, po, 10 mg/kg, NCI-H441 #1 (10 mg/kg), QD x 28 days
# [12] = mouse, whole blood, po, 10 mg/kg, NCI-H441 (10 mg/kg), single dose
# [13] = mouse, whole blood, po, 25 mg/kg, HPAC (25 mg/kg), single dose
# [14] = mouse, whole blood, po, 25 mg/kg, KP-4 (25 mg/kg), single dose
# [15] = mouse, whole blood, po, 25 mg/kg, NCI-H358 (25 mg/kg), single dose
# [16] = mouse, whole blood, po, 25 mg/kg, NCI-H441 #1 (25 mg/kg), QD x 28 days
# [17] = mouse, whole blood, po, 25 mg/kg, NCI-H441 #2 (25 mg/kg), QD x 10 days
# [18] = mouse, whole blood, po, 25 mg/kg, NCI-H441 (25 mg/kg), single dose
# [19] = mouse, whole blood, po, 25 mg/kg, NCI-H2122 (25 mg/kg), single dose
smiles,measurement,setting,value
CCn1c(-c2cc(N3CCN(C)CC3)cnc2[C@H](C)OC)c2c3cc(ccc31)-c1csc(n1)C[C@H](NC(=O)[C@H]1C[C@@H]1C)C(=O)N1CCC[C@H](N1)C(=O)OCC(C)(C)C2 [RMC-6236],concentration at 24 h,"mouse, tumor, oral, 50 mg/kg, Model Validation Dataset, 50mg/kg_study6, 24 h, read-out: Tumor Concentration",2100 nM
same,concentration at 48 h,"mouse, tumor, oral, 50 mg/kg, Model Validation Dataset, 50mg/kg_study6, 48 h, read-out: Tumor Concentration",1240 nM
same,concentration at 72 h,"mouse, tumor, oral, 50 mg/kg, Model Validation Dataset, 50mg/kg_study6, 72 h",621 nM
same,concentration at 8 h,"mouse, tumor, oral, 50 mg/kg, NCI-H441 xenograft tumor, study NCI-H441#6, 50 mg/kg, 8h, read-out: RMC-6236 (nM) Tumor",4770 nM
same,concentration at 24 h,"mouse, tumor, oral, 50 mg/kg, NCI-H441 xenograft tumor, study NCI-H441#6, 50 mg/kg, 24h, read-out: RMC-6236 (nM) Tumor",1960 nM
same,concentration at 8 h,"mouse, tumor, oral, 100 mg/kg, KP-4, study KP-4 #4, 100 mg/kg, 8h, read-out: RMC-6236 (nM) Tumor",10200 nM
same,concentration at 24 h,"mouse, tumor, oral, 100 mg/kg, KP-4, study KP-4 #4, 100 mg/kg, 24h, read-out: RMC-6236 (nM) Tumor",7000 nM
same,concentration at 24 h,"mouse, tumor, oral, 100 mg/kg, NCI-H441 xenograft tumor, study NCI-H441#6, 100 mg/kg, 24h, read-out: RMC-6236 (nM) Tumor",3020 nM
same,concentration at 48 h,"mouse, tumor, oral, 100 mg/kg, NCI-H441 xenograft tumor, study NCI-H441#6, 100 mg/kg, 48h, read-out: RMC-6236 (nM) Tumor",2060 nM
same,half-life,"mouse, tumor, po, 3 mg/kg, NCI-H441 (3 mg/kg), single dose, read-out: Tumor t1/2 (converted)",17.1 h
same,half-life,"mouse, tumor, po, 25 mg/kg, HPAC (25 mg/kg), single dose, read-out: Tumor t1/2 (converted)",14 h
same,half-life,"mouse, tumor, po, 25 mg/kg, KP-4 (25 mg/kg), single dose, read-out: Tumor t1/2 (converted)",11.3 h
same,half-life,"mouse, tumor, po, 25 mg/kg, NCI-H358 (25 mg/kg), single dose, read-out: Tumor t1/2 (converted)",10.2 h
same,half-life,"mouse, tumor, po, 25 mg/kg, NCI-H441 (25 mg/kg), single dose, read-out: Tumor t1/2 (converted)",46.1 h
same,concentration at 0.5 h,"mouse, whole blood, oral, 10 mg/kg, Model Validation Dataset, 10mg/kg_study6",435 nM
same,concentration at 1 h,[1],642 nM
same,concentration at 2 h,[1],642 nM
same,concentration at 4 h,[1],441 nM
same,concentration at 8 h,"mouse, whole blood, oral, 10 mg/kg, Model Validation Dataset, 10mg/kg_study6, 8 h, read-out: Blood Concentration",309 nM
same,concentration at 24 h,"mouse, whole blood, oral, 10 mg/kg, Model Validation Dataset, 10mg/kg_study6, 24 h, read-out: Blood Concentration",3.91 nM
same,Cmax,"mouse, whole blood, oral, 10 mg/kg, Naïve Mice #1 (10 mg/kg), single dose",744 ng/mL
same,concentration at 0.5 h,"mouse, whole blood, oral, 25 mg/kg, Model Development Dataset, 25mg/kg_study8",806 nM
same,concentration at 1 h,[2],979 nM
same,concentration at 2 h,[2],1410 nM
same,concentration at 4 h,[2],1430 nM
same,concentration at 8 h,"mouse, whole blood, oral, 25 mg/kg, Model Development Dataset, 25mg/kg_study8, 8 h, read-out: Blood Concentration",802 nM
same,concentration at 24 h,"mouse, whole blood, oral, 25 mg/kg, Model Development Dataset, 25mg/kg_study8, 24 h, read-out: Blood Concentration",7.71 nM
same,concentration at 216.5 h,[3],1180 nM
same,concentration at 220 h,[3],849 nM
same,concentration at 240 h,"mouse, whole blood, oral, 25 mg/kg, Model Development Dataset, 25mg/kg_study8r (doses every 24 h, 0-[…]), read-out: Blood Concentration",5.4 nM
same,concentration at 0.5 h,"mouse, whole blood, oral, 25 mg/kg, Model Validation Dataset, 25mg/kg_study6",598 nM
same,concentration at 1 h,[4],885 nM
same,concentration at 2 h,[4],1540 nM
same,concentration at 4 h,[4],1140 nM
same,concentration at 8 h,"mouse, whole blood, oral, 25 mg/kg, Model Validation Dataset, 25mg/kg_study6, 8 h, read-out: Blood Concentration",755 nM
same,concentration at 24 h,"mouse, whole blood, oral, 25 mg/kg, Model Validation Dataset, 25mg/kg_study6, 24 h, read-out: Blood Concentration",15.6 nM
same,concentration at 0.5 h,"mouse, whole blood, oral, 40 mg/kg, Model Development Dataset, 40mg/kg_study8",1320 nM
same,concentration at 1 h,[5],1580 nM
same,concentration at 2 h,[5],2770 nM
same,concentration at 4 h,[5],1480 nM
same,concentration at 8 h,"mouse, whole blood, oral, 40 mg/kg, Model Development Dataset, 40mg/kg_study8, 8 h, read-out: Blood Concentration",1200 nM
same,concentration at 24 h,"mouse, whole blood, oral, 40 mg/kg, Model Development Dataset, 40mg/kg_study8, 24 h, read-out: Blood Concentration",8 nM
same,concentration at 216.5 h,[6],1760 nM
same,concentration at 220 h,[6],1550 nM
same,concentration at 240 h,"mouse, whole blood, oral, 40 mg/kg, Model Development Dataset, 40mg/kg_study8r (doses every 24 h, 0-[…]), read-out: Blood Concentration",7.54 nM
same,concentration at 0.5 h,"mouse, whole blood, oral, 50 mg/kg, Model Validation Dataset, 50mg/kg_study6",1420 nM
same,concentration at 1 h,[7],1820 nM
same,concentration at 2 h,[7],2770 nM
same,concentration at 4 h,[7],1980 nM
same,concentration at 8 h,"mouse, whole blood, oral, 50 mg/kg, Model Validation Dataset, 50mg/kg_study6, 8 h, read-out: Blood Concentration",1350 nM
same,concentration at 24 h,"mouse, whole blood, oral, 50 mg/kg, Model Validation Dataset, 50mg/kg_study6, 24 h, read-out: Blood Concentration",22.4 nM
same,concentration at 48 h,"mouse, whole blood, oral, 50 mg/kg, Model Validation Dataset, 50mg/kg_study6, 48 h, read-out: Blood Concentration",2.76 nM
same,Cmax,"mouse, whole blood, oral, 50 mg/kg, Naïve Mice #1 (50 mg/kg), single dose",2960 ng/mL
same,Cmax,[8],79.2 ng/mL
same,AUC(0-t),[8],384 ng·h/mL
same,half-life,"mouse, whole blood, po, 1 mg/kg, NCI-H441 #1 (1 mg/kg), QD x 28 days, read-out: Blood t1/2 (converted)",2.9 h
same,Cmax,[9],219 ng/mL
same,AUC(0-t),[9],1180 ng·h/mL
same,Cmax,[10],286 ng/mL
same,AUC(0-t),[10],1330 ng·h/mL
same,half-life,"mouse, whole blood, po, 5 mg/kg, NCI-H441 #1 (5 mg/kg), QD x 28 days, read-out: Blood t1/2 (converted)",4.09 h
same,Cmax,[11],533 ng/mL
same,AUC(0-t),[11],2780 ng·h/mL
same,half-life,"mouse, whole blood, po, 10 mg/kg, NCI-H441 #1 (10 mg/kg), QD x 28 days, read-out: Blood t1/2 (converted)",3.22 h
same,Cmax,[12],520 ng/mL
same,AUC(0-t),[12],3810 ng·h/mL
same,half-life,"mouse, whole blood, po, 10 mg/kg, NCI-H441 (10 mg/kg), single dose, read-out: Blood t1/2 (converted)",2.93 h
same,Cmax,[13],1310 ng/mL
same,AUC(0-t),[13],12000 ng·h/mL
same,half-life,"mouse, whole blood, po, 25 mg/kg, HPAC (25 mg/kg), single dose, read-out: Blood t1/2 (converted)",2.62 h
same,Cmax,[14],1460 ng/mL
same,AUC(0-t),[14],12500 ng·h/mL
same,half-life,"mouse, whole blood, po, 25 mg/kg, KP-4 (25 mg/kg), single dose, read-out: Blood t1/2 (converted)",2.61 h
same,Cmax,[15],1150 ng/mL
same,AUC(0-t),[15],8720 ng·h/mL
same,half-life,"mouse, whole blood, po, 25 mg/kg, NCI-H358 (25 mg/kg), single dose, read-out: Blood t1/2 (converted)",2.78 h
same,Cmax,[16],1250 ng/mL
same,AUC(0-t),[16],6950 ng·h/mL
same,half-life,"mouse, whole blood, po, 25 mg/kg, NCI-H441 #1 (25 mg/kg), QD x 28 days, read-out: Blood t1/2 (converted)",3.46 h
same,Cmax,[17],1080 ng/mL
same,AUC(0-t),[17],6660 ng·h/mL
same,half-life,"mouse, whole blood, po, 25 mg/kg, NCI-H441 #2 (25 mg/kg), QD x 10 days, read-out: Blood t1/2 (converted)",2.67 h
same,Cmax,[18],1250 ng/mL
same,AUC(0-t),[18],9060 ng·h/mL
same,half-life,"mouse, whole blood, po, 25 mg/kg, NCI-H441 (25 mg/kg), single dose, read-out: Blood t1/2 (converted)",3.11 h
same,Cmax,[19],1110 ng/mL
same,AUC(0-t),[19],7930 ng·h/mL
same,half-life,"mouse, whole blood, po, 25 mg/kg, NCI-H2122 (25 mg/kg), single dose, read-out: Blood t1/2 (converted)",4.5 h
same,RMC-6236 (nM) Tumor,"sheet Ear Skin, model Capan-2, study Capan-2 #3_PHA 2023, 3 mg/kg, 48h",BQL
same,RMC-6236 (nM) Tumor,"sheet colon, Capan-2, Capan-2 #3_PHA 2023, 3 mg/kg, 24h",BQL
same,RMC-6236 (nM) Tumor,"sheet colon, Capan-2, Capan-2 #3_PHA 2023, 3 mg/kg, 48h",BQL
same,RMC-6236 (nM) Tumor,"sheet colon, Capan-2, Capan-2 #3_PHA 2023, 10 mg/kg, 48h",BQL
same,RMC-6236 (nM) Tumor,"sheet colon, Capan-2, Capan-2 #3_PHA 2023, 25 mg/kg, 48h",BQL
same,RMC-6236 (nM) Tumor,"sheet colon, Capan-2, Capan-2 #3_PHA 2023, 50 mg/kg, 48h",BQL
same,RMC-6236 (nM) Tumor,"sheet colon, Capan-2, Capan-2 #3_PHA 2023, 100 mg/kg, 48h",BQL
same,RMC-6236 (nM) Tumor,"sheet colon, KP-4, KP-4 #5, 25 mg/kg, 48h",BQL

# Reference: article PMC11149917, “Translational and Therapeutic Evaluation of RAS-GTP Inhibition by RMC-6236 in RAS-Driven Cancers” (Cancer Discovery, 2024)
